# Values of other authors in EP1398318A1, “Process for conducting chemical reactions in a liquid phase in the presence of a catalyst and a 1,3-substituted imidazolium salt” (BASF AKTIENGESELLSCHAFT, priority 2002, dated 2004).
# Molecular target: menschlichen Myeloperoxidase (Homo sapiens, UniProt P05164)
# Details: competitive with hydrogen peroxide at the active centre
# Sequence of menschlichen Myeloperoxidase (P05164 279-745 limits assumed): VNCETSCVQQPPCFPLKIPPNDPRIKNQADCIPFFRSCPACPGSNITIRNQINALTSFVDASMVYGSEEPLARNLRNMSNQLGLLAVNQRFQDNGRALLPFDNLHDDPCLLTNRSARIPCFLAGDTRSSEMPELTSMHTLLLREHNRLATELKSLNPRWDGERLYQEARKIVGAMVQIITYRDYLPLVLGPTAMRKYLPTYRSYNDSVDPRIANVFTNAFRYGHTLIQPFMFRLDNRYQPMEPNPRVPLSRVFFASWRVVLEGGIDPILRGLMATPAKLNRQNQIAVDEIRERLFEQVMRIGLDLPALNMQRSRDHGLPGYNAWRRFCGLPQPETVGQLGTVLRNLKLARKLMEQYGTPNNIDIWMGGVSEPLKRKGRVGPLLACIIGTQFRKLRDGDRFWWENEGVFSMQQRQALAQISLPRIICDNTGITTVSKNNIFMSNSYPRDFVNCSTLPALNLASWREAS
# Sequence of menschlichen Myeloperoxidase (P05164 165-278 limits assumed): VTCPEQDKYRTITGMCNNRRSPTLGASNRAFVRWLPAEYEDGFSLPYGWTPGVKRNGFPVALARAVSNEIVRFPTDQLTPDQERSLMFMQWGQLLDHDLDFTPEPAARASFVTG
smiles,measurement,value
Cl [Chlorid],bindet kompetitiv zu Wasserstoffperoxid am aktiven Zentrum des Enzyms,inhibierend
